{"source": "patent US11932673B2", "about": "“Sodium channel inhibitors” (priority 2017, dated 2024)", "key": {"trypsin": {"test_system": "trypsin", "test": "Phage TRF binding assay of KnotBody phage on immobilised biotinylated trypsin", "settings": "EETI-II directly fused to the N-terminus of gene III; TRF", "description": "Phage display technology facilitates isolation of binders to any given target from large combinatorial repertoires based on proteins and peptides that can be presented on the surface of filamentous phage^105. In order to isolate functional knottin-antibody fusions from the KnotBody libraries multiple rounds of phage display selections on trypsin (cognate antigen for the EETI-II donor) were carried out. Phage particles were prepared by rescuing KnotBody libraries using trypsin cleavable helper phage^102,106 Two rounds of phage display selections were performed on 10 μg/ml biotinylated trypsin immobilised on Streptavidin (for Round-1) or Neutravidin (for round-2) coated Maxisorp™ immunotubes (Thermo Scientific, Cat No. 444202). In both rounds of selection, phage libraries were pre-incubated with streptavidin coated paramagnetic beads (Thermo Fisher Scientific, Cat. No. 11205D). […] Polyclonal phage preparations from round-2 selection outputs were analysed for trypsin binding using a time resolved fluorescence (TRF) binding assay. In this assay, polyclonal phage binding to biotinylated trypsin immobilised on neutravidin (Thermo Fisher Scientific, Cat. No 31000) coated Maxisorp™ plates (Thermo Scientific, Cat. No. 437111) was detected using a mouse anti-M13 antibody (GE Healthcare, Cat. No. 27-9420-01) followed by europium conjugated anti-mouse antibody (Perkin Elmer, Cat. No. AD0124). […]"}, "huASIC1a": {"biological_target": "T1, huASIC1a (Homo sapiens, UniProt P78348)", "T1 sequence (P78348 whole entry, looked up)": "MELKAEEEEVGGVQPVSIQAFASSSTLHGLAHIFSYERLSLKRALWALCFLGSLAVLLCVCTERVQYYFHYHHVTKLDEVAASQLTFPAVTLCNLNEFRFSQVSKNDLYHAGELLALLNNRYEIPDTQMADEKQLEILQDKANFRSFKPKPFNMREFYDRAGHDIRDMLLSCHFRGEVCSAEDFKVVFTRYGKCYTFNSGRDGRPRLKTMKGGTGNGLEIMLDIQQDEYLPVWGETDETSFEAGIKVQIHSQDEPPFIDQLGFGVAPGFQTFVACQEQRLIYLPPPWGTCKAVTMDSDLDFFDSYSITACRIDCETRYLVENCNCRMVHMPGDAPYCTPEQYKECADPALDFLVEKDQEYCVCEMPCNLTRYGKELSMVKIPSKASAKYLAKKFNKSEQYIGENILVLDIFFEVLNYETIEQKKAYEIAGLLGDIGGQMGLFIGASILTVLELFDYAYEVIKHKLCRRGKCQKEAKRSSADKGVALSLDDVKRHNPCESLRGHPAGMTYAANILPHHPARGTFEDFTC", "test": "QPatch automated whole-cell patch-clamp on HEK293 cells stably expressing huASIC1a", "type": "cell-based", "settings": "full blocking 300 nM PcTx1 (positive control) perfused at end of each KnotBody or control incubation, then pH 6.0; one value per preceding sample", "description": "Knottin Kv 1.3 and ASIC1a blockers expressed in the KnotBody format (see examples 6 and 7) were tested for their ability to inhibit the function of the ion channel targets. The effect of these KnotBodies on cells expressing the human Kv 1.3 (huKv1.3) or human ASIC1a channels was assessed using QPatch automated whole-cell patch-clamp electrophysiology (Sophion).\nTo functionally assess the ASIC1a KnotBodies, HEK293 cells stably expressing huASIC1a (Sophion) were analysed using a QPatch electrophysiology assay in the presence or absence of the KnotBody fusions (using KB_A12 as a recipient and replacing the original EETI-II donor as shown in Table 8). The “parental” KB_A12 with the EETI-II donor was used as a negative control. Internal and external physiological solutions were freshly prepared prior to the assay. […]\nAt the end of each KnotBody incubation and subsequent ASIC1a current activation, a full blocking concentration (300 nM) of the ASIC1a knottin inhibitor PcTx1 (positive control) was perfused onto the cell recording and a final activating pH 6.0 external solution was applied. The percentage remaining signal between activating pH 6.0 baseline (i.e. pre-KnotBody) and post-KnotBody incubation was determined."}}, "note": "“And” between values parts separate entries of the source, which are not always exact repeats. Equal values may be shown once.", "data": [{"substance": "EETI-II [reference compound]", "values": [{"measurement": "binding to trypsin of phage", "setting": "trypsin", "value": "no detectable binding to trypsin"}]}, {"substance": "PcTx1: ASIC1a knottin inhibitor, positive control at 300 nM; SEQ ID NO: 20", "values": [{"measurement": "% current remaining PcTx1 (300 nM)", "setting": "huASIC1a", "value": "2% and 1.9% and 2.7% and 3.8% and 3.6%"}]}]}
